Experiments:
Format in all cases: functional
A549 [1] = assay: Cytotoxicity against human A549 cells assessed as cell growth at 100 uM after 1 to 11 days by MTT assay; conditions: read-out: Activity
HOP-62 [2] = assay: Cytotoxicity against human HOP62 cells assessed as cell growth at 1 mM after 1 to 11 days by MTT assay; conditions: read-out: Activity
HCC 2998 [3] = assay: Cytotoxicity against human HCC2998 cells assessed as cell growth at 1 mM after 1 to 11 days by MTT assay; conditions: read-out: Activity
K562 = assay: Cytotoxicity against human K562 cells assessed as cell growth at 10 uM after 1 to 11 days by MTT assay; conditions: read-out: Activity
RXF 393 [4] = assay: Cytotoxicity against human […] cells assessed as cell growth at 0.1 uM after 1 to 11 days by MTT assay; conditions: read-out: Activity
NCI-H23 [5] = assay: Cytotoxicity against human NCI-H23 cells assessed as cell growth at 1 uM after 1 to 11 days by MTT assay; conditions: read-out: Activity
HL-60(TB) = assay: Cytotoxicity against human HL-60(TB) cells assessed as cell growth at 1 mM after 1 to 11 days by MTT assay; conditions: read-out: Activity
OVCAR-4 [6] = assay: Cytotoxicity against human OVCAR4 cells assessed as cell growth at 1 uM after 1 to 11 days by MTT assay; conditions: read-out: Activity
UO-31 [7] = assay: Cytotoxicity against human UO31 cells after 1 to 11 days by MTT assay
SNB-19 = assay: Cytotoxicity against human SNB19 cells assessed as cell growth at 1 uM after 1 to 11 days by MTT assay; conditions: read-out: Activity
SW-620 [8] = assay: Cytotoxicity against human SW620 cells assessed as cell growth at 1 mM after 1 to 11 days by MTT assay; conditions: read-out: Activity
U-251 [9] = assay: Cytotoxicity against human U251 cells assessed as cell growth at 1 mM after 1 to 11 days by MTT assay; conditions: read-out: Activity
HCC 2998 [10] = assay: Cytotoxicity against human HCC2998 cells after 1 to 11 days by MTT assay
TK-10 = assay: Cytotoxicity against human TK10 cells assessed as cell growth at 100 uM after 1 to 11 days by MTT assay; conditions: read-out: Activity
MDA-MB-468 = assay: Cytotoxicity against human MDA-MB-468 cells after 1 to 11 days by MTT assay
MCF7 = assay: Cytotoxicity against human MCF7 cells assessed as cell growth at 10 uM after 1 to 11 days by MTT assay; conditions: read-out: Activity
OVCAR-4 [11] = assay: Cytotoxicity against human OVCAR4 cells assessed as cell growth at 0.1 uM after 1 to 11 days by MTT assay; conditions: read-out: Activity
A549 [12] = assay: Cytotoxicity against human A549 cells assessed as cell growth at 1 uM after 1 to 11 days by MTT assay; conditions: read-out: Activity
SN12C = assay: Cytotoxicity against human SN12C cells assessed as cell growth at 10 uM after 1 to 11 days by MTT assay; conditions: read-out: Activity
RXF 393 [13] = assay: Cytotoxicity against human […] cells assessed as cell growth at 10 uM after 1 to 11 days by MTT assay; conditions: read-out: Activity
UACC-62 = assay: Cytotoxicity against human UACC62 cells assessed as cell growth at 1 uM after 1 to 11 days by MTT assay; conditions: read-out: Activity
U-251 [14] = assay: Cytotoxicity against human U251 cells assessed as cell growth at 1 uM after 1 to 11 days by MTT assay; conditions: read-out: Activity
HOP-62 [15] = assay: Cytotoxicity against human HOP62 cells after 1 to 11 days by MTT assay
NCI-H522 [16] = assay: Cytotoxicity against human NCI-H522 cells assessed as cell growth at 100 uM after 1 to 11 days by MTT assay; conditions: read-out: Activity
UO-31 [17] = assay: Cytotoxicity against human UO31 cells assessed as cell growth at 0.1 uM after 1 to 11 days by MTT assay; conditions: read-out: Activity
SNB-75 [18] = assay: Cytotoxicity against human SNB75 cells assessed as cell growth at 100 uM after 1 to 11 days by MTT assay; conditions: read-out: Activity
LOX IMVI [19] = assay: Cytotoxicity against human LOXIMVI cells assessed as cell growth at 1 mM after 1 to 11 days by MTT assay; conditions: read-out: Activity
HCT-116 = assay: Cytotoxicity against human HCT116 cells assessed as cell growth at 1 mM after 1 to 11 days by MTT assay; conditions: read-out: Activity
CCRF-CEM = assay: Cytotoxicity against human CCRF-CEM cells assessed as cell growth at 100 uM after 1 to 11 days by MTT assay; conditions: read-out: Activity
NCI/ADR-RES = assay: Cytotoxicity against human NCI/ADR-RES cells assessed as cell growth at 0.1 uM after 1 to 11 days by MTT assay; conditions: read-out: Activity
ACHN [20] = assay: Cytotoxicity against human ACHN cells assessed as cell growth at 0.1 uM after 1 to 11 days by MTT assay; conditions: read-out: Activity
LOX IMVI [21] = assay: Cytotoxicity against human LOXIMVI cells assessed as cell growth at 100 uM after 1 to 11 days by MTT assay; conditions: read-out: Activity
M14 = assay: Cytotoxicity against human M14 cells assessed as cell growth at 0.1 uM after 1 to 11 days by MTT assay; conditions: read-out: Activity
NCI-H522 [22] = assay: Cytotoxicity against human NCI-H522 cells assessed as cell growth at 0.1 uM after 1 to 11 days by MTT assay; conditions: read-out: Activity
SNB-75 [23] = assay: Cytotoxicity against human SNB75 cells assessed as cell growth at 1 mM after 1 to 11 days by MTT assay; conditions: read-out: Activity
HT-29 = assay: Cytotoxicity against human HT-29 cells after 1 to 11 days by MTT assay
ACHN [24] = assay: Cytotoxicity against human ACHN cells assessed as cell growth at 100 uM after 1 to 11 days by MTT assay; conditions: read-out: Activity
OVCAR-8 [25] = assay: Cytotoxicity against human OVCAR8 cells assessed as cell growth at 1 uM after 1 to 11 days by MTT assay; conditions: read-out: Activity
OVCAR-8 [26] = assay: Cytotoxicity against human OVCAR8 cells assessed as cell growth at 0.1 uM after 1 to 11 days by MTT assay; conditions: read-out: Activity
SW-620 [27] = assay: Cytotoxicity against human SW620 cells assessed as cell growth at 0.1 uM after 1 to 11 days by MTT assay; conditions: read-out: Activity
HOP-62 [28] = assay: Cytotoxicity against human HOP62 cells assessed as cell growth at 10 uM after 1 to 11 days by MTT assay; conditions: read-out: Activity
UO-31 [29] = assay: Cytotoxicity against human UO31 cells assessed as cell growth at 10 uM after 1 to 11 days by MTT assay; conditions: read-out: Activity
T47D = assay: Cytotoxicity against human T47D cells assessed as cell growth at 0.1 uM after 1 to 11 days by MTT assay; conditions: read-out: Activity
NCI-H23 [30] = assay: Cytotoxicity against human NCI-H23 cells after 1 to 11 days by MTT assay
[31] = read-out: LC50 (the source's name)

O=C1Nc2ncccc2/C1=C1/Nc2ccccc2/C1=N\O was tested, and the growth at 100 µM (A549 [1]) was 15%, the growth at 1000 µM (HOP-62 [2]) was 74% and the growth at 1000 µM (HCC 2998 [3]) was 36%. The growth at 10 µM (K562) was 66%, the growth at 0.1 µM (RXF 393 [4]) was 93% and the growth at 1 µM (NCI-H23 [5]) was 90%. For the same molecule, the growth at 1000 µM (HL-60(TB)) was 7%, the growth at 1 µM (OVCAR-4 [6]) was 97% and the GI50 (UO-31 [7]) was 1.58 µM. For the same molecule, the TGI (UO-31 [7]) was over 100 µM, the CC50 (UO-31 [7]; [31]) was over 100 µM and the growth at 1 µM (SNB-19) was 97%. For the same molecule, the growth at 1000 µM (SW-620 [8]) was 39%, the growth at 1000 µM (U-251 [9]) was 68% and the GI50 (HCC 2998 [10]) was 5.96 µM. For the same molecule, the TGI (HCC 2998 [10]) was over 100 µM, the CC50 (HCC 2998 [10]; [31]) was over 100 µM and the growth at 100 µM (TK-10) was 49%. For the same molecule, the GI50 (MDA-MB-468) was 3.01 µM, the TGI (MDA-MB-468) was over 100 µM and the CC50 (MDA-MB-468; [31]) was over 100 µM. It also gave a growth at 10 µM (MCF7) of 86%, a growth at 0.1 µM (OVCAR-4 [11]) of 94% and a growth at 1 µM (A549 [12]) of 95%. It also gave a growth at 10 µM (SN12C) of 81%, a growth at 10 µM (RXF 393 [13]) of 55% and a growth at 1 µM (UACC-62) of 88%. For the same molecule, the growth at 1 µM (U-251 [14]) was 97%, the GI50 (HOP-62 [15]) was over 100 µM and the TGI (HOP-62 [15]) was over 100 µM. For the same molecule, the CC50 (HOP-62 [15]; [31]) was over 100 µM, the growth at 100 µM (NCI-H522 [16]) was 61% and the growth at 0.1 µM (UO-31 [17]) was 85%. It also gave a growth at 100 µM (SNB-75 [18]) of 14%, a growth at 1000 µM (LOX IMVI [19]) of 30% and a growth at 1000 µM (HCT-116) of 50%. It also gave a growth at 100 µM (CCRF-CEM) of 37%, a growth at 0.1 µM (NCI/ADR-RES) of 99% and a growth at 0.1 µM (ACHN [20]) of 102%. The growth at 100 µM (LOX IMVI [21]) was 36%, the growth at 0.1 µM (M14) was 95% and the growth at 0.1 µM (NCI-H522 [22]) was 100%. For the same molecule, the growth at 1000 µM (SNB-75 [23]) was 19%, the GI50 (HT-29) was 88.8 µM and the TGI (HT-29) was over 100 µM. The CC50 (HT-29; [31]) was over 100 µM, the growth at 100 µM (ACHN [24]) was 21% and the growth at 1 µM (OVCAR-8 [25]) was 85%. It also gave a growth at 0.1 µM (OVCAR-8 [26]) of 79%, a growth at 0.1 µM (SW-620 [27]) of 99% and a growth at 10 µM (HOP-62 [28]) of 105%. The growth at 10 µM (UO-31 [29]) was 62%, the growth at 0.1 µM (T47D) was 100% and the GI50 (NCI-H23 [30]) was over 100 µM. The TGI (NCI-H23 [30]) was over 100 µM and the CC50 (NCI-H23 [30]; [31]) was over 100 µM.

Reference: ChEMBL document CHEMBL1154822, “Synthesis and antiproliferative activity of 7-azaindirubin-3'-oxime, a 7-aza isostere of the natural indirubin pharmacophore” (J Nat Prod, 2009)
